The kinase profiling compilation of Christmann-Franck et al. (2016)

What was measured:
PKN1 (human) = PKN1 (human) (UniProt Q16512); assay: IMAP-FP
ABL1 (human) = ABL1 (human) (UniProt P00519); assay: Caliper, Mobility shift assay off-chip
EGFR (human) = EGFR (human) (UniProt P00533); assay: Caliper, Mobility shift assay off-chip
LCK (human) = LCK (human) (UniProt P06239); assay: Caliper, Mobility shift assay off-chip
LCK (human), sequence (P06239 whole entry, looked up): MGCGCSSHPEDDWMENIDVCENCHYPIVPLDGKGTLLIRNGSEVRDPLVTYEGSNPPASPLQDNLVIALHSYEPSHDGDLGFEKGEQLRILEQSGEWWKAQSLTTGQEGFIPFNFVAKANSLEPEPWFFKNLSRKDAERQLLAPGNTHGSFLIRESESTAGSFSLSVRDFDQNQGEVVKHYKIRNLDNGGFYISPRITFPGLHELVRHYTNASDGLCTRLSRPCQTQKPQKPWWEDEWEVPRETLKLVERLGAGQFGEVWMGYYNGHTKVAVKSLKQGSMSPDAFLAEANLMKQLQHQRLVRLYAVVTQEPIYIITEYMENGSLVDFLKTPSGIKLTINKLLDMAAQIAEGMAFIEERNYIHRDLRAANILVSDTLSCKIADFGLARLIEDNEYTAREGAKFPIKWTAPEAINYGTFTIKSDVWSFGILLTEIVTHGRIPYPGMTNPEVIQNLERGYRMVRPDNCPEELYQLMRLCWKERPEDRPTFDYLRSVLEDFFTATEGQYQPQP

EGFR (human), sequence (P00533 whole entry, looked up): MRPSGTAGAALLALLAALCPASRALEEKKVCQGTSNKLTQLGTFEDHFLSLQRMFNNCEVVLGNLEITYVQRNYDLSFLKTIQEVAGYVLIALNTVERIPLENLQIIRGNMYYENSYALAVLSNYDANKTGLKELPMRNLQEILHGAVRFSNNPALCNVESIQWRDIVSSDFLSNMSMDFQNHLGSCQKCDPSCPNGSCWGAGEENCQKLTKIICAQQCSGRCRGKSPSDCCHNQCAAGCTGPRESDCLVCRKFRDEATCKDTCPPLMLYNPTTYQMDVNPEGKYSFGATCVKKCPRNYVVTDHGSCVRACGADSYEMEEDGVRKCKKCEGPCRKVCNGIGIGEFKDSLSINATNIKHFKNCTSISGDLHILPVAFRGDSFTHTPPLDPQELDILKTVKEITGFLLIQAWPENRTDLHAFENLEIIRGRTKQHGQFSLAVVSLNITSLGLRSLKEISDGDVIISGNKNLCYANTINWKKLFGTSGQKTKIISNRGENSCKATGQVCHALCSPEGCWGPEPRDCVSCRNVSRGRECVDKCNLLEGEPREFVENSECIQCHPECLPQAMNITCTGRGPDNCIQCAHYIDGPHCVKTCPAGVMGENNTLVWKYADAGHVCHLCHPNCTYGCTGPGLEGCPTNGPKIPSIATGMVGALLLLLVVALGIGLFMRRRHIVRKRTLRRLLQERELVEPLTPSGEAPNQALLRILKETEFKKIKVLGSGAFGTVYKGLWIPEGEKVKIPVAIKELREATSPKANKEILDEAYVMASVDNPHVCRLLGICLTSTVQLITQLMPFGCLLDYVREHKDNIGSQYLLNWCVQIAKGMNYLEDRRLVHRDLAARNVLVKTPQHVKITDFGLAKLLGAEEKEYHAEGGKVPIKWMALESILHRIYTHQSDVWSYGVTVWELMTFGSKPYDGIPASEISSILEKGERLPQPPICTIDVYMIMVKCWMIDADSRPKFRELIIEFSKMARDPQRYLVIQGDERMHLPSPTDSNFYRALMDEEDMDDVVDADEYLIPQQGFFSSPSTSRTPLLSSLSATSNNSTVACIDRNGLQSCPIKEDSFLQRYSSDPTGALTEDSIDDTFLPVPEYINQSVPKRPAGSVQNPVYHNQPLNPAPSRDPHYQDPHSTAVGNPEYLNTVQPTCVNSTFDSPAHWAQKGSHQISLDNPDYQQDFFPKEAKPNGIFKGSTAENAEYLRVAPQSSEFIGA
PKN1 (human), sequence (Q16512 whole entry, looked up): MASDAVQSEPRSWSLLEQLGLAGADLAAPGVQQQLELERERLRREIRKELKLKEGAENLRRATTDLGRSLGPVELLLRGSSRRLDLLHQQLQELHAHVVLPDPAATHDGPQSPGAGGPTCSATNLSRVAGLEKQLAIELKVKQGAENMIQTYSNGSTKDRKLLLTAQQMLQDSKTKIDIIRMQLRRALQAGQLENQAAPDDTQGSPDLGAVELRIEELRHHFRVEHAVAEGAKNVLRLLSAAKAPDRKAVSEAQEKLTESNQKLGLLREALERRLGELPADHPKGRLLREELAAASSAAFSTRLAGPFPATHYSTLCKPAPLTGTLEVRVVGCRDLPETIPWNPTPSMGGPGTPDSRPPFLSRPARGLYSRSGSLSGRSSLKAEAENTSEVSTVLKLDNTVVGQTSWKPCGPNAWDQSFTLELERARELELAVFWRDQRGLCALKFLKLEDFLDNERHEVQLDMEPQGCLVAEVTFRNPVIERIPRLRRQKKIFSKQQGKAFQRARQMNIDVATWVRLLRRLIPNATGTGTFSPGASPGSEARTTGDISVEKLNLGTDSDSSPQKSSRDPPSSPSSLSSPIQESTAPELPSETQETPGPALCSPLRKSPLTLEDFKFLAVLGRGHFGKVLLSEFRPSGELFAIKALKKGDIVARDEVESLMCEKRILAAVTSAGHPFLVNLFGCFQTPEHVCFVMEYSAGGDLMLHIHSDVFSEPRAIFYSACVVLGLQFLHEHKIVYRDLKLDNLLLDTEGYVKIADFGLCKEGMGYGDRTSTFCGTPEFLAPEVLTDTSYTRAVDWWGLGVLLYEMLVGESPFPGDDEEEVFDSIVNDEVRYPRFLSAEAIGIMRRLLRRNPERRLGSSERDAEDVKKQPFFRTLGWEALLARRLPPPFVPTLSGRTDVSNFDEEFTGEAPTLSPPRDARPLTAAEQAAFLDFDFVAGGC
ABL1 (human), sequence (P00519 whole entry, looked up): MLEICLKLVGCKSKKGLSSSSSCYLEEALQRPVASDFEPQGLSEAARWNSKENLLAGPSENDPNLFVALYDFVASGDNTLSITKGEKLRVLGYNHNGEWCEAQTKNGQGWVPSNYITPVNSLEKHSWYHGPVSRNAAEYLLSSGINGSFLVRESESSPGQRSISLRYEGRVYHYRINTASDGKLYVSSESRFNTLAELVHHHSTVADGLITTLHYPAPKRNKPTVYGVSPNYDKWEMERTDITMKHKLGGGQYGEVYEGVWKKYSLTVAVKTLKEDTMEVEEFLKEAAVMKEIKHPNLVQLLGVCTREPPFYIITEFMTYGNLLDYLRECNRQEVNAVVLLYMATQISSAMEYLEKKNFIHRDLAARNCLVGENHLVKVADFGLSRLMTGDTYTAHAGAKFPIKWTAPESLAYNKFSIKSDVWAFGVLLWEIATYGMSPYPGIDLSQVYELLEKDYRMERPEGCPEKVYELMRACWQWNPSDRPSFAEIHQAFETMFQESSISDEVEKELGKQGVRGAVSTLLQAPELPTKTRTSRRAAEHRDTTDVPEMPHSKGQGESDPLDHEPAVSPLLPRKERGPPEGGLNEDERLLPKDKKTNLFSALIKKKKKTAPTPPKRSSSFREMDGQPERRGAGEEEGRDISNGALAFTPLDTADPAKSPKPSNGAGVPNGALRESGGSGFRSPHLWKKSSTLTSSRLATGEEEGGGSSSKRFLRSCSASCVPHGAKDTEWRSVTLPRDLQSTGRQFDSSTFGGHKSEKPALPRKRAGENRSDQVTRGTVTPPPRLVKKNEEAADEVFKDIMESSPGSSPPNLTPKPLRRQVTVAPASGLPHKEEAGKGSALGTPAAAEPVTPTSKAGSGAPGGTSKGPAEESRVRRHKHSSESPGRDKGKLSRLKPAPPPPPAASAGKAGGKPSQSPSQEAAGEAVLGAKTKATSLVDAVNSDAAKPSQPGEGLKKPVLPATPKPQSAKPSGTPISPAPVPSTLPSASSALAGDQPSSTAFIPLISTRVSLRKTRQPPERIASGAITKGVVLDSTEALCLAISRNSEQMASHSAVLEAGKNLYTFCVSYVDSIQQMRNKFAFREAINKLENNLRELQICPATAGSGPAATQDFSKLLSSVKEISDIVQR

| inhibition (PKN1 (human); compound 0.02 µM) [%] | inhibition (PKN1 (human); compound 0.2 µM) [%] | inhibition (ABL1 (human); compound 0.02 µM) [%] | inhibition (ABL1 (human); compound 0.2 µM) [%] | inhibition (EGFR (human); compound 0.02 µM) [%] | inhibition (EGFR (human); compound 0.2 µM) [%] | inhibition (LCK (human); compound 0.02 µM) [%] | inhibition (LCK (human); compound 0.2 µM) [%] | inhibition (PKN1 (human); compound 4.0 µM) [%] | inhibition (PKN1 (human); compound 0.001 µM) [%] | SMILES |
| --- | --- | --- | --- | --- | --- | --- | --- | --- | --- | --- |
| -40.2 | -39.4 |  |  |  |  |  |  |  |  | CNC(=O)c1cc(Oc2ccc(NC(=O)Nc3ccc(Cl)c(C(F)(F)F)c3)cc2)ccn1 |
| -21.6 |  |  |  |  |  |  |  |  | -26.9 | CNC(=O)c1ccccc1Sc1ccc2c(/C=C/c3ccccn3)n[nH]c2c1 |

The remaining lines, values behind:

| SMILES | inhibition (PKN1 (human); compound 0.02 µM) [%] | inhibition (PKN1 (human); compound 0.2 µM) [%] | inhibition (ABL1 (human); compound 0.02 µM) [%] | inhibition (ABL1 (human); compound 0.2 µM) [%] | inhibition (EGFR (human); compound 0.02 µM) [%] | inhibition (EGFR (human); compound 0.2 µM) [%] | inhibition (LCK (human); compound 0.02 µM) [%] | inhibition (LCK (human); compound 0.2 µM) [%] | inhibition (PKN1 (human); compound 4.0 µM) [%] | inhibition (PKN1 (human); compound 0.001 µM) [%] |
| --- | --- | --- | --- | --- | --- | --- | --- | --- | --- | --- |
| COc1cc2c(Oc3ccc4[nH]c(C)cc4c3F)ncnc2cc1OCCCN1CCCC1 | -35.8 | -32.5 | 24.1 | 58.9 | 30.6 | 78.4 | 23 | 72.7 |  |  |
| CCN(CC)CCNC(=O)c1c(C)[nH]c(/C=C2\C(=O)Nc3ccc(F)cc32)c1C |  | -2.2 |  |  |  |  |  |  | 57.1 |  |
| Cc1ccc(Nc2nccc(N(C)c3ccc4c(C)n(C)nc4c3)n2)cc1S(N)(=O)=O | -20.5 | -27.6 |  |  |  | -1.3 | 7 | 44.1 |  |  |
